From patent publication US4902716A (priority 1984, dated 1990)
Like-named read-outs stand apart in the source and are kept apart here.

Columns and labels:
VSV = type: cell-based, vesicular stomatitis; details: Day 5, inhibition of plaque formation
cells = experiment: Cytotoxicity (zone diameter in the antiviral assay); type: cell-based; details: Day 5
Experimental: The following assay method was utilized to illustrate the antiviral effectiveness of the compounds of formulae III and IV: […]
(1) Remove 75 cm^2 culture flasks from incubator (these were plated the previous week).
(3) Wash with 10 ml. PBSA or Puck's Saline.
(5) Wash a second time with 10 mL PBSA or Puck's Saline.
(7) Add 2 ml. trypsin/EDTA. Incubate until cells detach (10-20 min).
(8) Once detached, shake vigorously and immediately add 8 ml. medium and shake again.
(9) Count cells. (To 0.5 ml. cell suspension add 0.1 ml. trypan blue. Wait 5-10 minutes. Count 4 corner squares and middle square of 5×5 array in hemocytometer. Blue cells are dead. Total count per 10 ml. in culture flask=number of live cells×6×10^5).
(10) Maintain cell line by adding 3×10^6 cells to another 75 cm^2 culture flask. Bring to 30 ml. with fresh medium.
(11) For assay, add 1×10^6 cells to each well (6 wells per culture dish). Bring each well to 2 ml. with fresh medium.
(12) Incubate overnight at 37° C.
(2) Add 0.5 of medium containing 200 pfu HSV-I.
(3) Incubate 102 hr with a small amount of shaking.
(4) Add 2 ml. MC-4000 to each well.
(5) Place disks on surface and wash through (1 mg/disc, 0.5 mg/disc, 0.25 mg/disc, etc. for crude extracts).
(6) Incubate 48 hr. (making sure dishes remain level).
(1) Add 2 ml. neutral red medium.
(1) Read wells, e.g. 26 (++) where 26 indicates zone of cytotoxicity as the diameter in mm (12.5 mm to 36 mm) and (++) indicates the inhibition of plaque formation: complete inhibition (+++); a few plaques around the outside of well (++); definite inhibition (+); questionable inhibition (+/-); no inhibition (-); and no conclusion due to complete cytotoxicity.
The following antiviral inhibiting activity results were obtained utilizing the compounds of Formula III and IV at Day 5: […]

C=C1C(=O)C=CC(C)(C)[C@@]12C[C@@H](Br)[C@](C)(Cl)C[C@@H]2O [IV]
VSV activity (VSV; 100 micrograms): + | VSV activity (VSV; 200 micrograms): ++ | VSV activity (VSV; 400 micrograms): ++ | Cytotoxicity (cells; 100 micrograms): 0 mm | Cytotoxicity (cells; 200 micrograms): 0 mm | Cytotoxicity (cells; 400 micrograms): 12 mm
